One assay has as its target T1, human factor XIa (Homo sapiens, UniProt P03951).
T1 construct: purchased Kordia
Kind of assay: Measurement of FXIa inhibition (fluorogenic peptide substrate Boc-Glu(OBzl)-Ala-Arg-AMC). To be noted: factor XIa from Kordia 0.45 nM, 15 min pre-incubation, 30 min at 22° C., fluorescence. The class given is biochemical.

For a further assay, the system named is human and animal plasma. Kind of assay: Determination of anticoagulatory activity: activated partial thromboplastin time (aPTT) in plasma. To be noted: concentration of test substance which brings about a 1.5-fold extension of the aPTT; plasma in vitro, C.K. Prest kit. A digest of the protocol: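 Citrated plasma (human, mouse, rat, rabbit, pig, dog) incubated with varying compound concentrations and cephalin/kaolin PTT reagent for 3 minutes at 37° C.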

The text below walks through data of US20160244437A1, “SUBSTITUTED PHENYLALANINE DERIVATIVES” (BAYER PHARMA AKTIENGESELLSCHAFT, priority 2013, published 2016).

Structures can show the parent of a compound that is named as a salt.

T1 sequence (P03951 388-625 limits assumed): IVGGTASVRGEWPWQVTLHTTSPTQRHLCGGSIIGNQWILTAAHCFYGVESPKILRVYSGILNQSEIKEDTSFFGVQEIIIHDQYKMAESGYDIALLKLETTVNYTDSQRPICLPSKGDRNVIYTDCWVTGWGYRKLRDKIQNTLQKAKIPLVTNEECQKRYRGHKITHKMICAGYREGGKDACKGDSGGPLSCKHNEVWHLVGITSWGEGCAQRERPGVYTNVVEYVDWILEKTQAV
T1 sequence (P03951 19-387 partner limits assumed): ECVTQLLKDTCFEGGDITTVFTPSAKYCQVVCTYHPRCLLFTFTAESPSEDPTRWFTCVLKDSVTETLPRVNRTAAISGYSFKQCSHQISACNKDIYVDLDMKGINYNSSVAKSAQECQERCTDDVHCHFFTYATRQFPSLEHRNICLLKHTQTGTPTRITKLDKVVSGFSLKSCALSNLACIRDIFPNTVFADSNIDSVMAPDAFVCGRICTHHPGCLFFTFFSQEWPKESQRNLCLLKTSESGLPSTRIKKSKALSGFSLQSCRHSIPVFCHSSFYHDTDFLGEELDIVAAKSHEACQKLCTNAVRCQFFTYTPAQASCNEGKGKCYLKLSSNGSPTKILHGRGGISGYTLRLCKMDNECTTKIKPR

The term IC50 denotes the concentration that gives 50% inhibition. Higher therefore signals weaker potency in that assay. As to `Cc1cnccc1-c1cccc(C[C@H](NC(=O)[C@H]2CC[C@H](CN)CC2)C(=O)Nc2ccc(-c3nnn[nH]3)cc2)c1` [Example 80, N-alpha-{[trans-4-(Aminomethyl)cyclohexyl]carbonyl}-3-(3-methylpyridin-4-yl)-N-[4-(1H-tetrazol-5-yl)phenyl]-L-phenylalaninamide hydrochloride], the concentration for half-maximal inhibition (IC50) on human factor XIa was determined as 2.4 nM. This compound also came in with an aPTT in the assay with human and animal plasma of 0.25 µmol/L.
With `Cc1ccc(C(=O)NC2CCNCC2)cc1-c1cccc(C[C@H](NC(=O)[C@H]2CC[C@H](CN)CC2)C(=O)Nc2ccc(-c3nnn[nH]3)cc2)c1` [Example 14, 3′-[(2S)-2-({[trans-4-(Aminomethyl)cyclohexyl]carbonyl}amino)-3-oxo-3-{[4-(1H-tetrazol-5-yl)phenyl]amino}propyl]-6-methyl-N-(piperidin-4-yl)biphenyl-3-carboxamide hydrochloride], the IC50 against human factor XIa was 4.8 nM. This compound yielded an aPTT in the assay on human and animal plasma of 0.15 µmol/L.
For the compound `NC[C@H]1CC[C@H](C(=O)N[C@@H](Cc2cccc(-c3cccnc3C(F)(F)F)c2)C(=O)Nc2ccc(-c3nnn[nH]3)cc2)CC1` [Example 81, N-alpha-{[trans-4-(Aminomethyl)cyclohexyl]carbonyl}-N-[4-(1H-tetrazol-5-yl)phenyl]-3-[2-(trifluoromethyl)pyridin-3-yl]-L-phenylalaninamide hydrochloride], on human factor XIa, the concentration for half-maximal inhibition (IC50) came out at 2.5 nM. Further, the aPTT in the assay with human and animal plasma was 0.3 µmol/L.
In the case of `Cc1ccc(S(=O)(=O)N(C)C)cc1-c1cccc(C[C@H](NC(=O)[C@H]2CC[C@H](CN)CC2)C(=O)Nc2ccc3[nH]c(=O)[nH]c3c2)c1` [Example 44, trans-4-(Aminomethyl)-N-{(2S)-3-[5′-(dimethylsulphamoyl)-2′-methylbiphenyl-3-yl]-1-oxo-1-[(2-oxo-2,3-dihydro-1H-benzimidazol-5-yl)amino]propan-2-yl}cyclohexanecarboxamide hydrochloride], the concentration for half-maximal inhibition (IC50) on human factor XIa was 13 nM. Besides, in the assay with human and animal plasma, the aPTT amounted to 0.28 µmol/L.
As to `COCCOCCOCCNC(=O)c1ccc(C)c(-c2cccc(C[C@H](NC(=O)[C@H]3CC[C@H](CN)CC3)C(=O)Nc3ccc(-c4nnn[nH]4)cc3)c2)c1` [Example 20, 3′-[(2S)-2-({[trans-4-(Aminomethyl)cyclohexyl]carbonyl}amino)-3-oxo-3-{[4-(1H-tetrazol-5-yl)phenyl]amino}propyl]-N-{2-[2-(2-methoxyethoxy)ethoxy]ethyl}-6-methylbiphenyl-3-carboxamide hydrochloride], at human factor XIa, the 50% inhibitory concentration (IC50) was determined as 1.8 nM. For the same compound, in the assay with human and animal plasma, the aPTT was 0.24 µmol/L.
At human factor XIa, `CCN(CC)CCNC(=O)c1cccc(-c2cccc(C[C@H](NC(=O)[C@H]3CC[C@H](CN)CC3)C(=O)Nc3ccc(-c4nnc(Cl)[nH]4)cc3)c2)c1` [Example 40, 3′-[(2S)-2-({[trans-4-(Aminomethyl)cyclohexyl]carbonyl}amino)-3-{[4-(3-chloro-4H-1,2,4-triazol-5-yl)phenyl]amino}-3-oxopropyl]-N-[2-(diethylamino)ethyl]biphenyl-3-carboxamide hydrochloride] came in with an IC50 of 8.3 nM. The aPTT in the assay with human and animal plasma was determined as 0.19 µmol/L.
The matching figures for `Cc1ccc2[nH]ncc2c1-c1cccc(C[C@H](NC(=O)[C@H]2CC[C@H](CN)CC2)C(=O)Nc2ccc(-c3noc(=O)[nH]3)cc2)c1` [Example 87, N-alpha-{[trans-4-(Aminomethyl)cyclohexyl]carbonyl}-3-(5-methyl-1H-indazol-4-yl)-N-[4-(5-oxo-4,5-dihydro-1,2,4-oxadiazol-3-yl)phenyl]-L-phenylalaninamide hydrochloride]: 3.5 nM and 0.49 µmol/L.
Take `CNC(=O)c1ccc(F)c(-c2cccc(C[C@H](NC(=O)[C@H]3CC[C@H](CN)CC3)C(=O)Nc3ccc(-c4nnn[nH]4)cc3)c2)c1` [Example 62, 3′-[(2S)-2-({[trans-4-(Aminomethyl)cyclohexyl]carbonyl}amino)-3-oxo-3-{[4-(1H-tetrazol-5-yl)phenyl]amino}propyl]-6-fluoro-N-methylbiphenyl-3-carboxamide hydrochloride]: the concentration for half-maximal inhibition (IC50) against human factor XIa turned out to be 6.2 nM. The compound further had an aPTT in the assay on human and animal plasma of 0.48 µmol/L.
With `Cc1cc(C(=O)NC2CCC(N(C)C)CC2)ccc1-c1cccc(C[C@H](NC(=O)[C@H]2CC[C@H](CN)CC2)C(=O)Nc2ccc(-c3nnn[nH]3)c(F)c2)c1` (stereo partly drawn) [Example 64, 3′-[(2S)-2-({[trans-4-(Aminomethyl)cyclohexyl]carbonyl}amino)-3-{[3-fluoro-4-(1H-tetrazol-5-yl)phenyl]amino}-3-oxopropyl]-N-[4-(dimethylamino)cyclohexyl]-2-methylbiphenyl-4-carboxamide hydrochloride], the IC50 at human factor XIa came out at 5.2 nM. The compound also came in with an aPTT with human and animal plasma of 0.12 µmol/L.
As for `CN1CCN(C(=O)c2ccc(-c3cccc(C[C@H](NC(=O)[C@H]4CC[C@H](CN)CC4)C(=O)Nc4ccc(-c5nnc(Cl)[nH]5)cc4)c3)cc2)CC1` [Example 27, trans-4-(Aminomethyl)-N-[(2S)-1-{[4-(3-chloro-4H-1,2,4-triazol-5-yl)phenyl]amino}-3-{4′-[(4-methylpiperazin-1-yl)carbonyl]biphenyl-3-yl}-1-oxopropan-2-yl]cyclohexanecarboxamide hydrochloride], the half-inhibitory concentration (IC50) against human factor XIa is 4.7 nM. The compound also yielded an aPTT in the assay with human and animal plasma of 0.3 µmol/L.
Compound `Cc1ccc(S(=O)(=O)N2CCOCC2)cc1-c1cccc(C[C@H](NC(=O)[C@H]2CC[C@H](CN)CC2)C(=O)Nc2ccc3[nH]c(=O)[nH]c3c2)c1` [Example 10, trans-4-(Aminomethyl)-N-{(2S)-3-[2′-methyl-5′-(morpholin-4-ylsulphonyl)biphenyl-3-yl]-1-oxo-1-[(2-oxo-2,3-dihydro-1H-benzimidazol-5-yl)amino]propan-2-yl}cyclohexanecarboxamide hydrochloride] came in with a 50% inhibitory concentration (IC50) against human factor XIa of 13 nM. The aPTT with human and animal plasma stood at 0.23 µmol/L.
At human factor XIa, `NC[C@H]1CC[C@H](C(=O)N[C@@H](Cc2cccc(-c3ccc(C(=O)NC4CCNCC4)cc3)c2)C(=O)Nc2ccc3cn[nH]c3c2)CC1` [Example 51, 3′-[(2S)-2-({[trans-4-(Aminomethyl)cyclohexyl]carbonyl}amino)-3-(1H-indazol-6-ylamino)-3-oxopropyl]-N-(piperidin-4-yl)biphenyl-4-carboxamide hydrochloride] came in with a concentration for half-maximal inhibition (IC50) of 36 nM. For the same compound, in the assay with human and animal plasma, the aPTT came to 0.33 µmol/L.
`NC[C@H]1CC[C@H](C(=O)N[C@@H](Cc2cccc(-c3ccc(C(=O)NCCN4CCCCC4)cc3)c2)C(=O)Nc2ccc(-c3nnn[nH]3)cc2)CC1` [Example 37, 3′-[(2S)-2-({[trans-4-(Aminomethyl)cyclohexyl]carbonyl}amino)-3-oxo-3-{[4-(1H-tetrazol-5-yl)phenyl]amino}propyl]-N-[2-(piperidin-1-yl)ethyl]biphenyl-4-carboxamide hydrochloride] registered a 50% inhibitory concentration (IC50) against human factor XIa of 5.6 nM. Further, the aPTT in the assay on human and animal plasma amounted to 0.19 µmol/L.
Consider `Cc1cc(S(=O)(=O)N(C)C)ccc1-c1cccc(C[C@H](NC(=O)[C@H]2CC[C@H](CN)CC2)C(=O)Nc2ccc(-c3nnn[nH]3)cc2)c1` [Example 7, trans-4-(Aminomethyl)-N-[(2S)-3-[4′-(dimethylsulphamoyl)-2′-methylbiphenyl-3-yl]-1-oxo-1-{[4-(1H-tetrazol-5-yl)phenyl]amino}propan-2-yl]cyclohexanecarboxamide hydrochloride], for which the IC50 on human factor XIa stood at 1.7 nM. The aPTT with human and animal plasma worked out at 0.33 µmol/L.
On human factor XIa, `Cc1nc(N)ncc1-c1cccc(C[C@H](NC(=O)[C@H]2CC[C@H](CN)CC2)C(=O)Nc2ccc(-c3nnn[nH]3)cc2)c1` [Example 95, N-alpha-{[trans-4-(Aminomethyl)cyclohexyl]carbonyl}-3-(2-amino-4-methylpyrimidin-5-yl)-N-[4-(1H-tetrazol-5-yl)phenyl]-L-phenylalaninamide hydrochloride] returned an IC50 of 5.4 nM. Moreover, the aPTT in the assay on human and animal plasma came to 0.24 µmol/L.
In turn, `Cc1ccc(S(=O)(=O)NCc2ccccc2)cc1-c1cccc(C[C@H](NC(=O)[C@H]2CC[C@H](CN)CC2)C(=O)Nc2ccc(-c3nnn[nH]3)cc2)c1` [Example 1, trans-4-(Aminomethyl)-N-[(2S)-3-[5′-(benzylsulphamoyl)-2′-methylbiphenyl-3-yl]-1-oxo-1-{[4-(1H-tetrazol-5-yl)phenyl]amino}propan-2-yl]cyclohexanecarboxamide hydrochloride] registered a 50% inhibitory concentration (IC50) against human factor XIa of 0.4 nM. Also, the aPTT with human and animal plasma turned out to be 0.1 µmol/L.
The corresponding values for `Cc1ccc(S(=O)(=O)NCc2ccccc2)cc1-c1cccc(C[C@H](NC(=O)[C@H]2CC[C@H](CN)CC2)C(=O)Nc2ccc(-c3n[nH]c(=O)[nH]3)cc2)c1` [Example 13, trans-4-(Aminomethyl)-N-[(2S)-3-[5′-(benzylsulphamoyl)-2′-methylbiphenyl-3-yl]-1-oxo-1-{[4-(5-oxo-4,5-dihydro-1H-1,2,4-triazol-3-yl)phenyl]amino}propan-2-yl]cyclohexanecarboxamide hydrochloride] are 9.2 nM and 0.47 µmol/L.
With `Cc1ccc(S(=O)(=O)N2CCCC2)cc1-c1cccc(C[C@H](NC(=O)[C@H]2CC[C@H](CN)CC2)C(=O)Nc2ccc3[nH]c(=O)[nH]c3c2)c1` [Example 11, trans-4-(Aminomethyl)-N-{(2S)-3-[2′-methyl-5′-(pyrrolidin-1-ylsulphonyl)biphenyl-3-yl]-1-oxo-1-[(2-oxo-2,3-dihydro-1H-benzimidazol-5-yl)amino]propan-2-yl}cyclohexanecarboxamide hydrochloride], inhibition on human factor XIa was half-maximal at 7.9 nM (IC50). The aPTT with human and animal plasma was 0.3 µmol/L.
For the compound `CN1CCN(C(=O)c2cccc(-c3cccc(C[C@H](NC(=O)[C@H]4CC[C@H](CN)CC4)C(=O)Nc4ccc(-c5nnn[nH]5)cc4)c3)c2)CC1` [Example 31, trans-4-(Aminomethyl)-N-[(2S)-3-{3′-[(4-methylpiperazin-1-yl)carbonyl]biphenyl-3-yl}-1-oxo-1-{[4-(1H-tetrazol-5-yl)phenyl]amino}propan-2-yl]cyclohexanecarboxamide hydrochloride], it took 7 nM to reach half-maximal inhibition against human factor XIa (IC50). In addition, the aPTT in the assay on human and animal plasma came out at 0.36 µmol/L.
